From PubChem BioAssay (NCI) come the findings set out here.

Test systems include SN12C renal; LOX IMVI melanoma; DU-145 prostate; HCT-116 colon; M14 melanoma; HCT-15 colon; SNB-19 CNS; SR leukemia; 786-0 renal; RPMI-8226 leukemia.
Common to all, as to assay: growth of human tumour cells (NCI), 48 h

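Dose response: 5 concentrations. Exposure: 48 h. Format: 96-well plates. Endpoint: linear interpolation; highest concentration if not reached. Abbreviation: GI50, concentration required for 50% inhibition of growth. TGI is the concentration that stops growth completely.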

In the case of `O=c1cc(-c2ccc(Cl)cc2)[nH]c2ccccc12`, the GI50 in the assay with SN12C renal is > 100 µM; in the assay on LOX IMVI melanoma it was 39.3 µM; with DU-145 prostate, 66.4 µM; with HCT-116 colon, 32.5 µM; in the assay on M14 melanoma, 27.8 µM; in the assay with HCT-15 colon it was 12.9 µM. Besides, the GI50 in the assay on SNB-19 CNS is 95.3 µM; in the assay with SR leukemia, 4.76 µM; in the assay on 786-0 renal, 64.8 µM; with RPMI-8226 leukemia it was 46.9 µM. Further, the TGI with SN12C renal, in the assay on LOX IMVI melanoma, in the assay on DU-145 prostate, in the assay with HCT-116 colon, with M14 melanoma and in the assay on HCT-15 colon was > 100 µM each time. For the same compound, the TGI with SNB-19 CNS, in the assay on SR leukemia, in the assay with 786-0 renal and in the assay on RPMI-8226 leukemia was > 100 µM each time.
For the compound `C[C@@H](O)[C@@H](C)Oc1nc(Nc2ccc(S(=N)(=O)C3CC3)cc2)ncc1C(F)(F)F` (stereo not given in full), the GI50 in the assay with SN12C renal is 0.0342 µM; with LOX IMVI melanoma, 0.0178 µM; in the assay with DU-145 prostate, 0.0258 µM; in the assay with HCT-116 colon, 0.0228 µM; with M14 melanoma it was 0.0349 µM; in the assay with HCT-15 colon, 0.0329 µM. Moreover, the GI50 in the assay with SNB-19 CNS was 0.0309 µM; in the assay on SR leukemia, < 0.0122 µM; in the assay with 786-0 renal, 0.0352 µM; in the assay with RPMI-8226 leukemia, 0.0226 µM. The TGI was > 100 µM in the assay on SN12C renal; 10.7 µM with LOX IMVI melanoma; > 61.8 µM with DU-145 prostate; > 100 µM in the assay with HCT-116 colon; 0.316 µM in the assay on M14 melanoma; > 46.8 µM in the assay on HCT-15 colon. The TGI in the assay on SNB-19 CNS turned out to be 43 µM; in the assay on SR leukemia, 0.0475 µM; in the assay with 786-0 renal, 17.8 µM; with RPMI-8226 leukemia, 0.0586 µM.
Take `COC(=O)c1cc(-c2ccc3ccccc3c2)[nH]c(=O)c1C#N`: the TGI in the assay with SN12C renal, with LOX IMVI melanoma, in the assay with DU-145 prostate, in the assay with HCT-116 colon, in the assay with M14 melanoma and in the assay with HCT-15 colon was > 100 µM each time. The TGI in the assay on SNB-19 CNS, in the assay on SR leukemia, in the assay on 786-0 renal and in the assay on RPMI-8226 leukemia was > 100 µM in each case.
For `Cc1cccc(C(C)(C)C)c1NC(=O)C(C#N)C1=C(Cl)C(=O)c2ccccc2C1=O` (stereo not given), the TGI turned out to be 31.5 µM in the assay with SN12C renal; 30.7 µM in the assay on LOX IMVI melanoma; 36.5 µM in the assay on DU-145 prostate; 27.2 µM in the assay with HCT-116 colon; 32.5 µM in the assay on M14 melanoma; 39.1 µM in the assay on SNB-19 CNS. Also, the TGI in the assay with SR leukemia was > 100 µM; with 786-0 renal, 30 µM; in the assay on RPMI-8226 leukemia, 49.2 µM.
In the case of `O=C(COc1ccc(/C=C2\Oc3ccc4ccccc4c3C2=O)cc1)c1ccc([N+](=O)[O-])cc1`, the GI50 is 10.5 µM with SN12C renal; 2.88 µM in the assay with LOX IMVI melanoma; 10.9 µM in the assay on DU-145 prostate; 3.03 µM in the assay with HCT-116 colon; 12.1 µM in the assay with M14 melanoma; 7.6 µM with HCT-15 colon. Further, the GI50 in the assay with SNB-19 CNS is 15.6 µM; in the assay with SR leukemia, 0.0291 µM; in the assay with 786-0 renal it was 14.7 µM; with RPMI-8226 leukemia it was 1.6 µM. Further, the TGI in the assay on SN12C renal came out at 30.7 µM; in the assay on LOX IMVI melanoma, 10.8 µM; with DU-145 prostate it was 23.1 µM; in the assay with HCT-116 colon, 13.8 µM; with M14 melanoma, 40.6 µM; in the assay on HCT-15 colon, 20.4 µM. The TGI in the assay on SNB-19 CNS was 35.6 µM; in the assay with SR leukemia, 1.84 µM; with 786-0 renal, 34.6 µM; in the assay on RPMI-8226 leukemia, 5.11 µM.
For `OCC1NC(COC2OC(CO)C(O)C(O)C2O)C(O)C(O)C1O` (stereo not given), the TGI with SN12C renal, with DU-145 prostate, with HCT-116 colon, with M14 melanoma, with HCT-15 colon and in the assay on SNB-19 CNS was > 100 µM in each case. The TGI in the assay on SR leukemia, in the assay on 786-0 renal and with RPMI-8226 leukemia was > 100 µM each time.
In the case of `N#C/C(=C\c1ccc(O)c(O)c1)C(=O)NCc1ccc(C(F)(F)F)cc1`, the GI50 is 4.06 µM in the assay on SN12C renal; 7.54 µM in the assay on LOX IMVI melanoma; 16.3 µM with DU-145 prostate; 2.58 µM in the assay on HCT-116 colon; 4.05 µM in the assay on HCT-15 colon; 11.2 µM in the assay with SNB-19 CNS. Also, the GI50 was 2.47 µM in the assay on SR leukemia, 18.4 µM in the assay with 786-0 renal and 3.21 µM in the assay with RPMI-8226 leukemia. The TGI in the assay with SN12C renal is 18.8 µM; with LOX IMVI melanoma, 20.4 µM; in the assay on DU-145 prostate, > 62.3 µM; in the assay on HCT-116 colon it was 11.4 µM; in the assay on HCT-15 colon it was 41.1 µM; in the assay on SNB-19 CNS, > 68 µM. Also, the figures for the TGI with SR leukemia and in the assay with 786-0 renal were 6 µM and 37.5 µM, respectively.
Consider `O=C(NC1CCN(Cc2ccccc2)CC1)c1cc(-c2cccnc2)nc2ccc(Cl)cc12`, for which the GI50 was 5.2 µM with SN12C renal; 3.27 µM in the assay on LOX IMVI melanoma; 8.78 µM in the assay on DU-145 prostate; 5.47 µM in the assay with HCT-116 colon; 4.57 µM in the assay with HCT-15 colon; 11.6 µM with SNB-19 CNS. Further, the GI50 with SR leukemia was 2.71 µM; in the assay with 786-0 renal it was 4.63 µM; in the assay with RPMI-8226 leukemia, 6.62 µM. The TGI is 29.2 µM in the assay on SN12C renal; 17.2 µM in the assay on LOX IMVI melanoma; > 100 µM in the assay with DU-145 prostate; 26.4 µM with HCT-116 colon; 30.5 µM in the assay with HCT-15 colon; 42.3 µM with SNB-19 CNS. Besides, the TGI in the assay with SR leukemia is 12.9 µM; in the assay on 786-0 renal, 17.7 µM; with RPMI-8226 leukemia it was > 100 µM.
On to `Cc1cc(F)c(C(=O)Nc2cccc(-c3nncn3C(C)C)n2)cc1-n1cnc(C2CC2)c1`, for which the GI50 is 15.6 µM in the assay on SN12C renal; 14.4 µM in the assay on LOX IMVI melanoma; 8.25 µM in the assay on HCT-116 colon; 15.6 µM with HCT-15 colon; 25.5 µM in the assay with SNB-19 CNS; 4.42 µM with SR leukemia. Moreover, the results for the GI50 in the assay with 786-0 renal and with RPMI-8226 leukemia were 17.1 µM and 7.54 µM, respectively. The TGI with SN12C renal was 62.4 µM; in the assay with LOX IMVI melanoma, 35.9 µM; with DU-145 prostate it was > 100 µM; with HCT-116 colon it was > 100 µM; in the assay on HCT-15 colon, 96.4 µM; with SNB-19 CNS it was > 100 µM. For the same compound, the TGI in the assay on SR leukemia was > 100 µM; with 786-0 renal, > 100 µM; in the assay on RPMI-8226 leukemia it was 35.3 µM.
